Data taken from publication PMC10017155 (Aging and Disease, 2023).
Entries after “also recorded” stand apart in the source; their conditions may differ. Peptide text beside a SMILES is read from it.

Key:
isoD7-Aβ16 = assay: NMR titration, isoD7-Aβ16 with HAEE and Zn2+; format: binding; conditions: NMR
Method: (§1) Peptides Aβ16, H6R-Aβ16 and isoD7-Aβ16 at the concentration of 0.2 - 8mM were dissolved in 10-20 mM bis-Tris-d19 (2,2-Bis(hydroxymethyl)-2,2′,2"-nitrilotrie-thanol-d19 with 98% ^2D enrichment) buffer solution (pH 6.8). Sodium salt of 3-(trimethylsilyl) propionic-2,2,3,3-d4 acid (DSS) at a concentration of 10-20 μM was added as the standard. NMR spectra were measured at 278 K in 90% H2O/10% D2O with Bruker AVANCE 600 MHz spectrometer equipped with triple resonance (^1H, ^13C and ^15N) pulsed field z gradient probe. 1D NMR spectra were processed and analyzed using the Mnova software (Mestrelab Research, Spain). In order to monitor peptide-peptide interactions NMR titration experiments were carried out. […] 1D spectra were recorded for each titration point.

H6R-Aβ16 = assay: NMR titration, H6R-Aβ16 dimer with HAEE and Zn2+; format: binding, human; conditions: 1H NMR, H6R-Aβ16 1.6 mM, pH 6.8, 0.5 equivalent ZnCl2, titration by HAEE; V12 methyl signal at 0.2 ppm
Method: as §1
Figure 1. Interaction of HAEE with beta-amyloid. (A) A model for the contribution of isoD7-Aβ to AD pathology, and the possible ways of preventing its deleterious effects. Aβ spontaneously converts into isoD7-Aβ, which is accumulated over age, likely due to reduced Aβ clearance. Isomerized Aβ promotes AD pathology, potentially via formation of Zn-bound complexes serving as the seeds for a generation of neurotoxic oligomers. […] The amount of dimeric form is determined by the intensity of its characteristic signal at 0.2 ppm. […]

C. elegans CL2122 = assay: Lifespan analysis, C. elegans CL2122 (transgenic control); format: in vivo; conditions: for Increase/decrease in lifespan: vs control of same repeat
Method: C. elegans CL2120 (dvIs14 [(pCL12) unc-54::beta 1-42 +(pCL26) mtl-2::GFP]) and C. elegans CL2122 (dvIs15 [(pPD30.38) unc-54(vector) + (pCL26) mtl-2::GFP]) strains were obtained from the Caenorhabditis Genetics Center. The worms were handled according to standard methods without FUDR [18]. E. coli OP50 bacteria were grown overnight in Luria-Bertani broth and 50µl were spread atop NGM or NGMZn plates. NGMZn has 20μM ZnSO4. Seeded plates were incubated at 30°C for ~16 hours and then for 1-2 hours at 15 or 25°C before worms were transferred. Lifespan and paralysis experiments (see below) were performed at 25°C for enhanced expression of Aβ. This temperature is standard when studying the effects of Aβ on C. elegans CL2120 strain [19].
Nematodes were purified from unwanted microflora by the alkaline hypochlorite method, grown to the L4 stage at 15°C on NGM plates with bacterial lawn. […] Further, all contents were transferred to Petri plates with NGM or NGMZn with OP50 and placed in a temperature-controlled incubator at 25°C. Next day, worms were transferred onto similar media with a bacterial substrate and the lifespan was determined at 25°C (Supplementary Tables 3, 4).
Lifespans were monitored at 25°C as described previously. All experiments were repeated at least three times and ≈130 worms were used for each experiment. Details regarding repeated experiments and amounts of animals used for experiments are summarized in Supplementary Tables 3, 4. In all cases, stage L4 worms were used at t = 0 for lifespan analyses and worms were transferred every other day to new agar plates. […] Escaped animals or animals with internal hatching were not included in lifespan calculation. Data was analyzed and Boltzmann sigmoid survival curves generated using the SciDAVis statistical analysis software package. Mean lifespans were compared in Microsoft Excel using the Student t test, applying one-tailed distribution and two-sample equal variance. All lifespan plots represent the composites of all independent experiments tabulated in Supplementary Tables 3, 4. Mean percentage change ±SD of lifespan after treatment, relative to untreated control are indicated in each graph in the same color as the curve.

transgenic mice = conditions: cited from earlier work
Text: The development of AD comprises a cascade of pathogenic processes in brain tissue. Some of the major elements of this cascade are the aggregation of beta-amyloid (Aβ) with the formation of neurotoxic oligomers, hyperphosphorylation of tau, and neuroinflammation. […] In the sporadic form of AD, accounting for 95% of disease cases, the molecular triggers for the pathological cascade remain unknown. […] We hypothesized that the contribution of isoD7-Aβ to the development of AD is based on the formation of zinc-bound complexes that promote pathological aggregation of Aβ (Fig. 1A). […] Interaction of HAEE with beta-amyloid. (A) A model for the contribution of isoD7-Aβ to AD pathology, and the possible ways of preventing its deleterious effects. Aβ spontaneously converts into isoD7-Aβ, which is accumulated over age, likely due to reduced Aβ clearance. Isomerized Aβ promotes AD pathology, potentially via formation of Zn-bound complexes serving as the seeds for a generation of neurotoxic oligomers. Treatment with anti-isoAβ antibodies is a promising therapeutic strategy already showing effectiveness in AD model mice ^9.

[1] = CL2122, NGM (no Zn), replicate 1
[2] = CL2122, NGM (no Zn), replicate 2
[3] = CL2122, NGM (no Zn), replicate 3

With `CC(=O)N[C@@H](Cc1c[nH]cn1)C(=O)N[C@@H](C)C(=O)N[C@@H](CCC(=O)O)C(=O)N[C@@H](CCC(=O)O)C(N)=O` [HAEE, Ac-HAEE-NH2] (Ac-HAEE-NH2) the “Zinc-dependent dimerization of isoD7-Aβ16” value (isoD7-Aβ16; 278 K, pH 6.8, Zn2+) was “inhibits”, the “Effect of Zn2+ on isoD7-Aβ16 NMR signal in the presence of HAEE” value (isoD7-Aβ16; pH 6.8, 278 K, Zn2+ plus HAEE) was “did not diminish the isoD7-Aβ16 signal” and the “Amount of dimeric form of H6R-Aβ16 upon addition of HAEE” value (H6R-Aβ16) was “decrease in the amount of dimeric H6R-Aβ16; also recorded: disappearance of the dimeric form; also recorded: shifts the equilibrium between monomeric and dimeric Aβ towards its monomeric form”. For the same compound, the “Effect of HAEE itself on lifespan” value (C. elegans CL2122; CL2122, HAEE 4 mM) was “no effect”, the Mean survival (C. elegans CL2122; CL2122, NGM (no Zn), Aβ42 or isoD7-Aβ42 40 μM, HAEE 4 mM, 25°C, mean ± SD of 3 experiments) was 9.07 ± 0.25 days and the 50% survival (C. elegans CL2122; [1]) was 8.8 days. The 50% survival (C. elegans CL2122; [2]) was 9.3 days, the 50% survival (C. elegans CL2122; [3]) was 9.1 days and the “Mean increase/decrease in lifespan” value (C. elegans CL2122; CL2122, NGM (no Zn), vs control NGM, mean ± SD of 3 experiments) was 0.03±1.89%. The Increase/decrease in lifespan (C. elegans CL2122; [1]) was 1.15%, the Increase/decrease in lifespan (C. elegans CL2122; [2]) was 1.09% and the Increase/decrease in lifespan (C. elegans CL2122; [3]) was -2.15%. For the same compound, the “Effect on lifespan” value (C. elegans CL2122; CL2122, NGM, without Zn2+, 25°C) was “do not affect”, the 50% survival (C. elegans CL2122; CL2122, NGMZn, replicate 1) was 8.8 days and the 50% survival (C. elegans CL2122; CL2122, NGMZn, replicate 2) was 9.1 days. The 50% survival (C. elegans CL2122; CL2122, NGMZn, replicate 3) was 8.9 days, the “Mean increase/decrease in lifespan” value (C. elegans CL2122; CL2122, NGMZn, vs control NGMZn, mean ± SD of 3 experiments) was -1.05 ±2.87% and the Increase/decrease in lifespan (C. elegans CL2122; CL2122, NGMZn, replicate 1) was 1.15%. For the same compound, the Increase/decrease in lifespan (C. elegans CL2122; CL2122, NGMZn, replicate 2) was 0%, the Increase/decrease in lifespan (C. elegans CL2122; CL2122, NGMZn, replicate 3) was -4.3% and the “Amyloid accumulation in animal models of AD” value (transgenic mice) was “hamper amyloid accumulation”.
